Tests used:
[1] = test system: human coagulation factor XI protein; test: In vivo activity in human coagulation factor XI model mice (Experimental Example 3), plasma FXI protein by ELISA; conditions: humanized mice
Experimental: The humanized mice used in this experimental example were purchased from Cyagen Biosciences Co., Ltd. The humanized mice were randomly divided into groups, with 4 mice per group. The compound and PBS control (pH = 7.2) were administered to each group of mice, respectively. The day of the first administration was designated as day 0 of the experiment. The corresponding compound solutions were administered via a single subcutaneous injection based on animal body weight, at administration doses of 1 mg/kg and 5 mg/kg. PBS control mice were each administered PBS, with an administration volume of 10 mL/kg body weight. Orbital blood was collected before administration and on day 7, day 14, day 28, day 42, and day 63 after administration. Plasma was separated, and the content of the coagulation factor XI protein in the plasma was measured at each time point.
About 165 µL of blood was collected from the orbital veins for plasma collection. A 3.8% trisodium citrate anticoagulant was added to the whole blood in a volume ratio of 1:9 (anticoagulant:[…], v/v), and the mixture was centrifuged at 3000 rpm at 20 °C for 15 min to collect plasma. The content of the coagulation factor XI protein in the plasma obtained from the above groups of mice (test groups administered the compound and PBS control group) was measured using a Human Coagulation Factor XI ELISA kit (Sigma, Cat. No. RAB1385-1KT).
(§1) The coagulation factor XI protein inhibition rate was calculated according to the following equation: [formula]
Table 11 lists the measurement of FXI protein content in animal plasma before and on day 7, day 14, day 28, day 42, and day 63 after a single subcutaneous administration of siRNA ligand conjugates (TD01M01L01, TD02M01L01) at doses of 1 mg/kg and 5 mg/kg to humanized homozygous mice. […] Table 11. In vivo experimental design

[2] = test system: human coagulation factor XI protein; test: In vivo activity in human coagulation factor XI model mice (Experimental Example 4), FXI protein by ELISA; conditions: female humanized homozygous mice, single subcutaneous 3 mg/kg
Experimental: The humanized mice used in this experimental example were purchased from Cyagen Biosciences Co., Ltd. The female humanized homozygous mice were randomly divided into groups, with 4 mice per group. The compound and PBS control (pH = 7.2) were administered to each group of mice, respectively. The day of the first administration was designated as day 0 of the experiment. The corresponding compound solutions were administered via a single subcutaneous injection based on animal body weight, at an administration dose of 3 mg/kg. PBS control mice were each administered PBS, with an administration volume of 10 mL/kg body weight. Orbital blood was collected before administration and on day 3, day 7, day 14, day 21, day 28, day 42, day 56, and day 70 after administration. Serum was separated, and the content of the coagulation factor XI protein in the serum at each time point was measured using a Human Coagulation Factor XI ELISA kit (Thermo, Batch No. 2350072722, Cat. No. EH118RB).
as §1
Table 13 lists the measurement of coagulation factor XI protein content in animal plasma before and on day 3, day 7, day 14, day 21, day 28, day 42, day 56, and day 70 after a single subcutaneous administration of siRNA ligand conjugates at a dose of 3 mg/kg to humanized homozygous mice. […] Table 13. In vivo experimental design

[3] = test system: human coagulation factor XI protein; test: In vivo activity in AAV-FXI model mice, serum FXI protein by ELISA; conditions: AAV-FXI mice (C57BL/6 male), single subcutaneous 3 mg/kg
Experimental: 4-6 week old C57BL/6 male mice were injected via the tail vein with 1 × 10^11 vg of AAV8-FXI (WZ Biosciences). On day 28 after modeling, mice with an hFXI protein content of greater than 100 ng/mL were selected. The mice were randomly divided into groups based on body weight and were injected with 3 mg/kg of the dsRNA ligand conjugate of the present application (amount calculated based on siRNA only) on day 0. Orbital blood was collected on day 7, day 14, day 35, and day 56. Serum was separated, and the content of the coagulation factor XI protein in the serum at each time point was measured using a Human Coagulation Factor XI ELISA kit (Thermo, Cat. No. EH118RB).
as §1
The content of the coagulation factor XI protein in animal serum was measured before and on day 7, day 14, day 35, and day 56 after a single subcutaneous administration of the dsRNA ligand conjugate of the present application at a dose of 3 mg/kg to AAV-FXI mice (see Table 15). […] Table 15. In vivo experimental design

[4] = test system: activated partial thromboplastin time (APTT); test: In vivo activity in cynomolgus monkeys, activated partial thromboplastin time in plasma; conditions: cynomolgus monkey plasma, subcutaneous once, 14 mg/kg (second row, dose by order of Table 17)
Experimental: On day 7 before administration, female cynomolgus monkeys weighing 2-4 kg were fasted overnight, and about 1 mL of blood was collected from the femoral vein. Plasma was collected by centrifugation. FXI protein (Human Coagulation Factor XI ELISAkit, Thermo, Cat. No. EH118RB), FXI activity (coagulation factor XI assay kit, Stago, Cat. No. 00723), and APTT (activated partial thromboplastin time assay kit, Stago, Cat. No. 00595) were measured. The monkeys were evenly divided into groups based on these indicators. On day 0, the dsRNA ligand conjugates of the present application (TD02M02L01, etc.) were injected. On day 0, day 3, day 7, day 14, day 21, day 28, day 37, day 54, and day 68, plasma was collected to measure plasma FXI protein, FXI activity, and activated partial thromboplastin time (APTT).
The activated partial thromboplastin time prolongation rate was calculated according to the following equation: [formula]
The content of the coagulation factor XI protein, the FXI activity, and the activated partial thromboplastin time in animal plasma were measured before and on day 0, day 3, day 7, day 14, day 21, day 28, day 37, day 54, and day 68 after the subcutaneous administration of the dsRNA ligand conjugates of the present application at doses of 4.2 mg/kg and 14 mg/kg to cynomolgus monkeys (Table 17). […] Table 17. In vivo experimental design

TD02M02L01: dsRNA ligand conjugate: TD02M02 with L01 (GalNAc) ligand at 3' end of sense strand SEQ ID NO 35; antisense SEQ ID NO 36 (sense GGATGATTTTCTTATATCA; antisense TGATATAAGAAAATCATCCTG; GalNAc L01 ligand at sense 3' end, 2'-OMe/2'-F, pattern not given here)
Relative inhibition rate (%) of FXI protein ([1]; single subcutaneous 1 mg/kg, D7): 66.7%
Relative inhibition rate (%) of FXI protein ([1]; single subcutaneous 1 mg/kg, D14): 70.2%
Relative inhibition rate (%) of FXI protein ([1]; single subcutaneous 1 mg/kg, D28): 58.6%
Relative inhibition rate (%) of FXI protein ([1]; single subcutaneous 1 mg/kg, D42): 70.5%
Relative inhibition rate (%) of FXI protein ([1]; single subcutaneous 1 mg/kg, D63): 47.0%
Relative inhibition rate (%) of FXI protein ([1]; single subcutaneous 5 mg/kg, D7): 91.5%
Relative inhibition rate (%) of FXI protein ([1]; single subcutaneous 5 mg/kg, D14): 93.5%
Relative inhibition rate (%) of FXI protein ([1]; single subcutaneous 5 mg/kg, D28): 88.4%
Relative inhibition rate (%) of FXI protein ([1]; single subcutaneous 5 mg/kg, D42): 86.9%
Relative inhibition rate (%) of FXI protein ([1]; single subcutaneous 5 mg/kg, D63): 66.3%
Relative inhibition rate (%) of FXI protein ([2]; D3): 74.4%
Relative inhibition rate (%) of FXI protein ([2]; D7): 93.7%
Relative inhibition rate (%) of FXI protein ([2]; D14): 86.4%
Relative inhibition rate (%) of FXI protein ([2]; D21): 88.0%
Relative inhibition rate (%) of FXI protein ([2]; D28): 84.9%
Relative inhibition rate (%) of FXI protein ([2]; D42): 63.3%
Relative inhibition rate (%) of FXI protein ([2]; D56): 50.4%
Relative inhibition rate (%) of FXI protein ([2]; D70): 21.4%
Relative inhibition rate (%) of FXI protein ([3]; D7): 96.3%
Relative inhibition rate (%) of FXI protein ([3]; D14): 97.3%
Relative inhibition rate (%) of FXI protein ([3]; D35): 86.0%
Relative inhibition rate (%) of FXI protein ([3]; D56): 57.4%
Relative prolongation rate (%) of APTT ([4]; D3): 6.0%
Relative prolongation rate (%) of APTT ([4]; D7): 25.2%
Relative prolongation rate (%) of APTT ([4]; D14): 60.9%
Relative prolongation rate (%) of APTT ([4]; D21): 116.0%
Relative prolongation rate (%) of APTT ([4]; D28): 70.6%
Relative prolongation rate (%) of APTT ([4]; D37): 100.3%
Relative prolongation rate (%) of APTT ([4]; D54): 124.4%
Relative prolongation rate (%) of APTT ([4]; D68): 132.4%

From EP4772634A1, “DOUBLE-STRANDED RNA TARGETING COAGULATION FACTOR XI” (Chia Tai Tianqing Pharmaceutical Group Co., Ltd., priority 2023, dated 2025)
